# Measured values published in patent US11370847B2, “Single domain antibodies directed against intracellular antigens” (Singh Biotechnology, LLC, priority 2014, dated 2022).
# Several values for one entry are separate records, joined by “and”; a condition that tells them apart may be missing. Equal entries are not always repeated.
# How the values were obtained:
# endogenous STAT3 = assay: Immunoprecipitation from cell lines with constitutively activated STAT3; format: binding, human (PANC-1 and DU145) and murine (4T1)
# Protocol: Commercial HeLa cells were also treated with interferon gamma (INFΓ) in order to induce phosphorylated STAT3. The PC-3 STAT3 null cell line was used as a negative control.
# The cells were grown to 50% to 70% confluence, then disrupted in freshly prepared ice-cold lysis buffer as described above for 45 minutes on ice. Lysates were then centrifuged, the supernatant collected, and protein concentration was determined as described above. […] Beads were then washed. Following the final wash, 60 μl of lysis buffer was added, and the resulting supernatant was subject to Western Blot analysis as described in Example 2.
# MDA-MB-231 cells = assay: MTT proliferation assay, MDA-MB-231; format: cell-based, human; details: MDA-MB-231; for Absorbance: single experiments;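 as to all read-outs here: proliferation of cultured human cancer cells read by MTT, with treated groups compared against a vehicle control group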
# HT1080 cells = assay: MTT proliferation assay, HT1080; format: cell-based, human; details: HT1080, 72 hr
# U87MG cells = assay: MTT proliferation assay, U87MG; format: cell-based, human; details: for % Inhibition (growth): U87mg cells treated for 72 hr.
# PANC-1 cells [1] = assay: Internalization of sdAb, anti-His staining, PANC-1; format: cell-based; details: 18 hours after sdAb addition
# Protocol: The next day, the chambers were rinsed with fresh media and STAT3 VHH13 (SEQ ID NO:3) sdAb (diluted 1:10 in media) or TNF-α VHH66 (SEQ ID NO:45) sdAb was added to the chamber. An anti-HIV-1 Reverse Transcriptase (RT) sdAb was used as a negative control.
# The slides were incubated for 18 hours after sdAb addition. The chambers were briefly rinsed with media and fixed in ice-cold methanol for 5-10 min. The chambers were then dried and stained with a fluorescent anti-His tag antibody (1:200) (Novus Biologicals, Littleton, Colo.) for 45 min at room temperature. The slides were rinsed in PBS for 5 minutes and mounted.
# STAT3 [2] = assay: STAT3 reporter GloResponse SIE-luc2P/HEK293 assay, IL-6 induction; format: cell-based; details: for decrease in RLU: highest concentration (55.8 μg/mL);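 as to all read-outs here: SIE-luc2P/HEK293 reporter cells stimulated with IL-6 at 40 ng/mL (EC80) after pretreatment, luciferase luminescence (RLU) read the following day, triplicate wells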
# SIE-luc2P/HEK293 cells = assay: BCA protein concentration of reporter cells; format: cell-based; details: highest concentration (55.8 μg/mL)
# STAT3 [3] = assay: Immunofluorescence of Stat3 nuclear translocation after IL-6; format: cell-based; details: HEp-2, MDA-MB-231 and PANC-1 cells; sdAb 1:10 overnight; 100 ng/ml IL-6 15 min
# Protocol: The cells were grown to confluence on chamber slides. […] As a negative control, no antibody was added to duplicate chambers. The slides were washed, and either serum-free media alone or 100 ng/ml recombinant human IL-6 (Peprotech, Rocky Hill, N.J.) in serum free media was added to the slides for 15 min at 37° C. The media was then removed and the chamber slides were fixed in ice cold 100% methanol for 10 min at −20° C.
# Immunofluorescence assays were performed on the fixed slides. First, the slides were blocked with 3% BSA in PBS was done for one hour at room temperature. The primary antibody, Stat3(124H6) mouse monoclonal antibody (Cell Signaling Technology, Danvers, Mass.) was added to the slides at a 1:1000 dilution overnight in dark box at 4° C. The following day, the slides were washed and the secondary Alexa Fluor 488 anti-mouse IgG antibody (Cell Signaling Technology) was added at a 1:500 dilution and incubated for 1 hour at room temperature. The slides were then washed, mounted with mounting media and viewed with a fluorescence microscope.
# EBOv (Makon) = details: Hela; EBOV (Makona); 48 hours
# PANC-1 cells [4] = assay: MTT proliferation assay, PANC-1; details: SBT-100 100 μg/ml alone, experiment with Gemcitabine Hydrochloride (Biovision #1759), 72 hours
# DU145 xenograft = assay: DU145 prostate cancer xenograft model; details: SBT-100 5 mg/kg bw i.p. BID×14
# SJSA-1 xenograft = assay: SJSA-1 Bone Osteosarcoma subcutaneous xenograft model
# [5] = SBT-100 5.0 mg/kg BID 14 days IP, Doxorubicin 7.0 mg/kg days 1, 8 and 14 IP
# [6] = study day 9 post implant, IP, SBT-100 5.0 mg/kg BIDx14 and/or Doxorubicin 7.0 mg/kg days 1, 8, 14
# [7] = study day 13 post implant, IP, SBT-100 5.0 mg/kg BIDx14 and/or Doxorubicin 7.0 mg/kg days 1, 8, 14
# [8] = study day 16 post implant, IP, SBT-100 5.0 mg/kg BIDx14 and/or Doxorubicin 7.0 mg/kg days 1, 8, 14
# [9] = study day 20 post implant, IP, SBT-100 5.0 mg/kg BIDx14 and/or Doxorubicin 7.0 mg/kg days 1, 8, 14
# [10] = study day 21 post implant, IP, SBT-100 5.0 mg/kg BIDx14 and/or Doxorubicin 7.0 mg/kg days 1, 8, 14
# [11] = study day 23 post implant, IP, SBT-100 5.0 mg/kg BIDx14 and/or Doxorubicin 7.0 mg/kg days 1, 8, 14
# [12] = study day 27 post implant, IP, SBT-100 5.0 mg/kg BIDx14 and/or Doxorubicin 7.0 mg/kg days 1, 8, 14
substance,measurement,setting,value
"anti-STAT3 VHH13: anti-STAT3 single-domain antibody, SEQ ID NO:3; bacterially produced, referred to as SBT-100",binding to Phospho-STAT3,endogenous STAT3; HeLa lysate (interferon gamma treated),bound
same,immunoprecipitation of endogenous STAT3,"endogenous STAT3; PANC-1, DU145 and 4T1 lysates",immunoprecipitated
same,immunoprecipitation in STAT3 null cell line,endogenous STAT3; PC-3 (negative control),No bands
same,Average Absorbance,MDA-MB-231 cells; 50 μg,0.82
same,Average % Inhibition,"MDA-MB-231 cells; 50 μg (50.0 μg/ml), listed as Anti-STAT3 Bacterial VHH13",32.6%
same,Absorbance,"MDA-MB-231 cells; 50 μg, listed as Anti-STAT3 Bacterial VHH13",0.82 and 0.99 and 0.64
same,Average Absorbance,MDA-MB-231 cells; 100 μg,0.11
same,Absorbance,"MDA-MB-231 cells; 100 μg, listed as Anti-STAT3 Bacterial VHH13",0.07 and 0.12 and 0.14
same,IC50,HT1080 cells,IC50 = 33 μg/ml
same,% Inhibition (growth),U87MG cells; Dose 50 μg/ml,18%
same,% Inhibition (growth),U87MG cells; Dose 100 μg/ml,51%
same,% Inhibition (growth),U87MG cells; Dose 200 μg/ml,62%
same,IC50,"U87MG cells; U87mg, 72 hr",IC50 = 65 μg/ml
same,% Inhibition,"U87MG cells; U87mg, SBT-100 50 μg/ml, 72 hr",18%
same,% Inhibition,"U87MG cells; U87mg, SBT-100 100 μg/ml, 72 hr",51%
same,% Inhibition,"U87MG cells; U87mg, SBT-100 200 μg/ml, 72 hr",62%
same,staining with fluorescent anti-His tag antibody,PANC-1 cells [1],positive cytoplasmic staining
same,effect on IL-6 induction of the STAT3 reporter,"STAT3 [2]; 24 and 48 hours treatment, VHH13 and VHH69 at highest concentration, VHH14 at both concentrations",Inhibition of IL-6
same,decrease in RLU,STAT3 [2]; 24 hours treatment prior to IL-6 induction,greater than 10 fold
same,decrease in RLU,STAT3 [2]; 48 hours treatment prior to IL-6 induction,"greater than 1,000 fold"
same,decrease in protein,SIE-luc2P/HEK293 cells,approximately 2 fold
same,translocation of Stat3 to the nucleus following IL-6 treatment,STAT3 [3],blocks the translocation of Stat3 to the nucleus
same,EC50,EBOv (Makon),19.02 ug/m
same,EC90,EBOv (Makon),58.72 µg/mL
same,Abs,PANC-1 cells [4],0.381
same,% treatment/control,DU145 xenograft,74.8%
same,mean tumor size (±S.E.) at termination (day 28),DU145 xenograft,601.83±131.51
same,mean tumor size (±SE) at last day of dosing (Day 14),DU145 xenograft,364.14±51.64
same,tumor doubling time,DU145 xenograft; control 14.57 days,18.19 days
same,mean tumor growth inhibition at the end of the study,DU145 xenograft; p=0.29,26.6%
same,% T/C,SJSA-1 xenograft; [5],69.91%
same,mean tumor growth inhibition at the end of the study,SJSA-1 xenograft; [5],25.23%
same,mean tumor size (±S.E.) at termination,SJSA-1 xenograft; [5],1055.68±307.10
same,mean tumor size (±SE) at the last day of dosing,SJSA-1 xenograft; [5],334.52±114.62
same,mean tumor size compared to control,SJSA-1 xenograft; SJSA-1 xenograft,non-significant decrease in mean tumor size
same,tumor doubling time,SJSA-1 xenograft; control 8.22,8.84
same,% Inh Mean,SJSA-1 xenograft; [6],21.06%
same,% Inh Med,SJSA-1 xenograft; [6],11.92%
same,Mean Abs (tumor measurement),SJSA-1 xenograft; [6],31.31 mm^3
same,Median Abs (tumor measurement),SJSA-1 xenograft; [6],19.98 mm^3
same,"Tumor Measurements, single animals",SJSA-1 xenograft; [6],15.75 mm^3 and 19.98 mm^3 and 0.00 mm^3 and 69.47 mm^3 and 10.46 mm^3 and 79.76 mm^3 and 23.77 mm^3
same,% Inh Mean,SJSA-1 xenograft; [7],−45.34%
same,% Inh Med,SJSA-1 xenograft; [7],−44.59%
same,Mean Abs (tumor measurement),SJSA-1 xenograft; [7],115.14 mm^3
same,Median Abs (tumor measurement),SJSA-1 xenograft; [7],85.60 mm^3
same,"Tumor Measurements, single animals",SJSA-1 xenograft; [7],106.64 mm^3 and 28.26 mm^3 and 0.00 mm^3 and 126.45 mm^3 and 38.25 mm^3 and 420.78 mm^3 and 85.60 mm^3
same,% Inh Mean,SJSA-1 xenograft; [8],12.69%
same,% Inh Med,SJSA-1 xenograft; [8],14.60%
same,% T/C,SJSA-1 xenograft; [8],71.23%
same,Mean Abs (tumor measurement),SJSA-1 xenograft; [8],151.57 mm^3
same,Median Abs (tumor measurement),SJSA-1 xenograft; [8],139.83 mm^3
same,"Tumor Measurements, single animals",SJSA-1 xenograft; [8],139.83 mm^3 and 36.05 mm^3 and 11.02 mm^3 and 200.95 mm^3 and 187.82 mm^3 and 358.90 mm^3 and 126.46 mm^3
same,% Inh Mean,SJSA-1 xenograft; [9],18.11%
same,% Inh Med,SJSA-1 xenograft; [9],24.54%
same,% T/C,SJSA-1 xenograft; [9],73.26%
same,Mean Abs (tumor measurement),SJSA-1 xenograft; [9],252.90 mm^3
same,Median Abs (tumor measurement),SJSA-1 xenograft; [9],191.62 mm^3
same,"Tumor Measurements, single animals",SJSA-1 xenograft; [9],191.62 mm^3 and 70.70 mm^3 and 59.97 mm^3 and 616.53 mm^3 and 180.38 mm^3 and 450.45 mm^3 and 200.68 mm^3
same,% Inh Mean,SJSA-1 xenograft; [10],16.23%
same,% Inh Med,SJSA-1 xenograft; [10],35.42%
same,% T/C,SJSA-1 xenograft; [10],76.22%
same,Mean Abs (tumor measurement),SJSA-1 xenograft; [10],334.52 mm^3
same,Median Abs (tumor measurement),SJSA-1 xenograft; [10],198.86 mm^3
same,"Tumor Measurements, single animals",SJSA-1 xenograft; [10],271.05 mm^3 and 115.97 mm^3 and 96.53 mm^3 and 901.18 mm^3 and 155.51 mm^3 and 602.51 mm^3 and 198.86 mm^3
same,% Inh Mean,SJSA-1 xenograft; [11],8.48%
same,% Inh Med,SJSA-1 xenograft; [11],33.12%
same,% T/C,SJSA-1 xenograft; [11],79.47%
same,Mean Abs (tumor measurement),SJSA-1 xenograft; [11],477.43 mm^3
same,Median Abs (tumor measurement),SJSA-1 xenograft; [11],308.49 mm^3
same,"Tumor Measurements, single animals",SJSA-1 xenograft; [11],"308.49 mm^3 and 201.00 mm^3 and 185.39 mm^3 and 1,359.67 mm^3 and 197.83 mm^3 and 756.79 mm^3 and 332.80 mm^3"
same,% Inh Mean,SJSA-1 xenograft; [12],25.23%
same,% Inh Med,SJSA-1 xenograft; [12],37.90%
same,% T/C,SJSA-1 xenograft; [12],69.91%
same,Mean Abs (tumor measurement),SJSA-1 xenograft; [12],"1,055.68 mm^3"
same,Median Abs (tumor measurement),SJSA-1 xenograft; [12],707.34 mm^3
same,"Tumor Measurements, single animals",SJSA-1 xenograft; [12],"707.34 mm^3 and 474.71 mm^3 and 380.72 mm^3 and 2,500.29 mm^3 and 351.21 mm^3 and 1,699.89 mm^3 and 1,275.63 mm^3"
